Laboratory results published in patent publication US20110313672A1, “CELLULAR ANTIOXIDANT ACTIVITY (CAA) ASSAY” (CORNELL UNIVERSITY, priority 2007, published 2011).
Values joined by “and” are separate entries in the source; they are usually repeats but may differ in a detail not shown here. Equal entries are not always repeated. “Also recorded” adds a separate entry of the source.

test system: HepG2 cells; experiment: Cellular antioxidant activity (CAA) assay: inhibition of peroxyl radical-induced DCFH oxidation; type: cell-based, human; conditions: CAA assay, either protocol or protocol not specified
Procedure: Cells (e.g., human hepatocellular carcinoma cells; HepG2) are seeded at a density of e.g., 6×10^4/well on a 96-well microplate in 100 μL growth medium/well. It is preferred that only the inside wells of e.g., a 96-well microplate are used for the assay, since the outer wells have increased variation compared to that of the inner wells. Twenty-four hours after seeding the growth medium is removed and the wells are washed with PBS. Triplicate wells are treated for 1 h with 100 μL of a test compound (e.g., pure phytochemical compounds or fruit extracts) plus 25 μM DCFH-DA dissolved in treatment medium.
600 μM ABAP is then applied to the cells in 100 μL HBSS and the 96-well microplate is placed into a plate reader e.g., Fluoroskan Ascent FL plate-reader (ThermoLabsystems, Franklin, Mass.) at 37° C. Emission at 538 nm is measured with excitation at 485 nm, for example every 5 min for 1 h. Each plate should include triplicate control and blank wells: control wells contain cells treated with DCFH-DA and oxidant; blank wells contain cells treated with dye and HBSS without oxidant.
A test compound is assayed in multiple wells of e.g., a 96-well cell culture plate. Some wells are washed with 100 μL of phosphate-buffered saline (PBS) prior to the addition of ABAP, while other wells were not washed prior to the addition of ABAP. It was noted that the measured antioxidant activity of some fruit extracts (e.g., blueberries) was different when a PBS wash was used compared to when there was no PBS wash (see Table 2; FIGS. 3 and 4). This is likely due to non-specific binding of certain antioxidant compounds to the outer membrane, or a reduced uptake of the compound, thus the ratio of antioxidant activity values obtained with a PBS wash compared to a non-PBS wash indicates the bioavailability of the test compound. In order to accurately measure the intracellular antioxidant activity of a test compound, a PBS wash prior to the addition of a peroxyl initiator (e.g, ABAP) is necessary. The values obtained for cells assayed using a PBS wash should be compared to values obtained for the same cells assayed without a PBS wash. One of skill in the art can plan and perform experiments on a test compound in the presence and absence of a PBS wash, in order to accurately assess the intracellular antioxidant capacity of the test compound.
After blank subtraction from the fluorescence readings, the area under the curve of fluorescence versus time is integrated to calculate the cellular antioxidant activity (CAA) value at each concentration of pure phytochemical compound or fruit extract as follows:
where ∫SA is the integrated area under the sample fluorescence versus time curve and ∫CA is the integrated area from the control curve. The median effective dose (EC50) was determined for the pure phytochemical compounds and fruit extracts from the median effect plot of log (fa/fu) vs. log (dose), where fa is the fraction affected and fu is the fraction unaffected by the treatment. To quantify intra-experimental variation, the EC50 values are stated as mean±SD for triplicate sets of data obtained from the same experiment. Inter-experimental variation is obtained for some representative pure phytochemical compounds and fruit extracts by averaging the fluorescence values from triplicate wells in each trial to obtain one EC50 value per experiment and calculating the mean±SD for at least four trials. In each experiment, a standard is used, for example quecetin, thus permitting the cellular antioxidant activities for a test compounds to be expressed as μmol quercetin equivalents (QE)/100 μmol compound. Fruit extracts are expressed as μmol QE/100 g fruit. In order to compare the antioxidant quality of different fruits, cellular antioxidant activity (CAA) is also calculated as μmol QE/100 μmol total phenolics.
Human hepatocellular carcinoma HepG2 cells were seeded at a density of 6×10^4/well on a 96-well microplate in 100 μL growth medium/well. […]

Compound	cellular antioxidant activity, result in words
O=c1c(O[C@@H]2O[C@H](CO)[C@@H](O)[C@H](O)[C@H]2O)c(-c2ccc(O)c(O)c2)oc2cc(O)cc(O)c12 [Q-3-G, quercetin-3-β-D-glucoside]	low amount of activity; also recorded: low or no cellular antioxidant activity
O=C1c2c(O)cc(O)cc2O[C@H](c2ccc(O)c(O)c2)[C@H]1O [Taxifolin, taxifolin]	low or no cellular antioxidant activity; also recorded: low CAA
O=c1c(-c2ccc(O)cc2)coc2cc(O)cc(O)c12 [genistein]	no cellular antioxidant activity; also recorded: no CAA

same assay, conditions: CAA assay, either protocol or protocol not specified; listed as Genistein

Compound	cellular antioxidant activity, result in words
O=c1c(-c2ccc(O)cc2)coc2cc(O)cc(O)c12 [genistein]	no activity

same assay, conditions: Example 1, Table 1; PBS wash; pure phytochemical compounds; mean ± SD, n=3; read-out: EC50 for inhibition of peroxyl radical-induced DCFH oxidation

Compound	EC50 [µM]
O=c1c(O)c(-c2ccc(O)c(O)c2)oc2cc(O)cc(O)c12 [Quercetin, quercetin]	5.09 ± 0.19

same assay, conditions: Example 1; PBS wash; pure compounds; EC50 converted to quercetin equivalents

Compound	CAA value [µmol QE/100 µmol]
O=c1c(O)c(-c2ccc(O)cc2)oc2cc(O)cc(O)c12 [Kaempferol, kaempferol]	81.1 ± 2.7

same assay, conditions: Example 1; no PBS wash; pure compounds; EC50 converted to quercetin equivalents

Compound	CAA value [μmol QE/100 μmol]
O=c1c(O)c(-c2ccc(O)cc2)oc2cc(O)cc(O)c12 [Kaempferol, kaempferol]	75.3±4.7

same assay, conditions: Example 3, Table 7; PBS wash

Compound	CAA
O=c1c(O)c(-c2ccc(O)cc2)oc2cc(O)cc(O)c12 [Kaempferol, kaempferol]	85.1 ± 2.4 μmol of QE/100 μmol
O=c1c(O[C@@H]2O[C@H](CO)[C@@H](O)[C@H](O)[C@H]2O)c(-c2ccc(O)c(O)c2)oc2cc(O)cc(O)c12 [Q-3-G, quercetin-3-β-D-glucoside]	6.6 ± 0.1 μmol of QE/100 μmol
O=c1c(O)c(-c2ccc(O)c(O)c2)oc2cc(O)cc(O)c12 [Quercetin, quercetin]	105.7 ± 3.7 μmol of QE/100 μmol

same assay, conditions: Example 3, Table 7; PBS wash; flavonoids; mean ± SD, n=3

Compound	EC50
O=c1c(-c2ccc(O)cc2)coc2cc(O)cc(O)c12 [genistein]	no activity

same assay, conditions: Example 3, Table 7; PBS wash; flavonoids; mean ± SD, n=3; read-out: EC50

Compound	EC50 [µM]
O=c1c(O[C@@H]2O[C@H](CO)[C@@H](O)[C@H](O)[C@H]2O)c(-c2ccc(O)c(O)c2)oc2cc(O)cc(O)c12 [Q-3-G, quercetin-3-β-D-glucoside]	122 ± 1

same assay, conditions: Example 3, Table 7; no PBS wash

Compound	CAA
O=c1c(O)c(-c2ccc(O)cc2)oc2cc(O)cc(O)c12 [Kaempferol, kaempferol]	74.6 ± 4.8 μmol of QE/100 μmol
O=c1c(O[C@@H]2O[C@H](CO)[C@@H](O)[C@H](O)[C@H]2O)c(-c2ccc(O)c(O)c2)oc2cc(O)cc(O)c12 [Q-3-G, quercetin-3-β-D-glucoside]	7.7 ± 0.1 μmol of QE/100 μmol
O=c1c(O)c(-c2ccc(O)c(O)c2)oc2cc(O)cc(O)c12 [Quercetin, quercetin]	99.1 ± 4.8 μmol of QE/100 μmol

same assay, conditions: Example 3, Table 7; no PBS wash; flavonoids; mean ± SD, n=3

Compound	EC50
O=c1c(-c2ccc(O)cc2)coc2cc(O)cc(O)c12 [genistein]	no activity

same assay, conditions: Example 3, Table 7; no PBS wash; flavonoids; mean ± SD, n=3; read-out: EC50

Compound	EC50 [µM]
O=c1c(O[C@@H]2O[C@H](CO)[C@@H](O)[C@H](O)[C@H]2O)c(-c2ccc(O)c(O)c2)oc2cc(O)cc(O)c12 [Q-3-G, quercetin-3-β-D-glucoside]	115 ± 2

same assay, conditions: Homo sapiens, HepG2, Example 1, Table 1; PBS wash; pure phytochemical compounds; mean ± SD, n=3; read-out: EC50 for inhibition of peroxyl radical-induced DCFH oxidation

Compound	EC50 [µM]
O=c1c(O)c(-c2ccc(O)cc2)oc2cc(O)cc(O)c12 [Kaempferol, kaempferol]	6.31 ± 0.21
O=C1c2c(O)cc(O)cc2O[C@H](c2ccc(O)c(O)c2)[C@H]1O [Taxifolin, taxifolin]	> 150

same assay, conditions: Homo sapiens, HepG2, Example 1, Table 1; no PBS wash; pure phytochemical compounds; mean ± SD, n=3; read-out: EC50 for inhibition of peroxyl radical-induced DCFH oxidation

Compound	EC50 [µM]
O=c1c(O)c(-c2ccc(O)cc2)oc2cc(O)cc(O)c12 [Kaempferol, kaempferol]	7.85 ± 0.51
O=c1c(O)c(-c2ccc(O)c(O)c2)oc2cc(O)cc(O)c12 [Quercetin, quercetin]	5.92 ± 0.07
O=C1c2c(O)cc(O)cc2O[C@H](c2ccc(O)c(O)c2)[C@H]1O [Taxifolin, taxifolin]	> 150

same assay, conditions: Homo sapiens, HepG2, Example 3, Table 7; PBS wash; flavonoids; mean ± SD, n=3; read-out: EC50

Compound	EC50 [µM]
O=c1c(O)c(-c2ccc(O)cc2)oc2cc(O)cc(O)c12 [Kaempferol, kaempferol]	9.57 ± 0.27
O=c1c(O)c(-c2ccc(O)c(O)c2)oc2cc(O)cc(O)c12 [Quercetin, quercetin]	7.71 ± 0.26
O=C1c2c(O)cc(O)cc2O[C@H](c2ccc(O)c(O)c2)[C@H]1O [Taxifolin, taxifolin]	> 200

same assay, conditions: Homo sapiens, HepG2, Example 3, Table 7; no PBS wash; flavonoids; mean ± SD, n=3; read-out: EC50

Compound	EC50 [µM]
O=c1c(O)c(-c2ccc(O)cc2)oc2cc(O)cc(O)c12 [Kaempferol, kaempferol]	11.9 ± 0.8
O=c1c(O)c(-c2ccc(O)c(O)c2)oc2cc(O)cc(O)c12 [Quercetin, quercetin]	8.93 ± 0.44
O=C1c2c(O)cc(O)cc2O[C@H](c2ccc(O)c(O)c2)[C@H]1O [Taxifolin, taxifolin]	> 200

same assay, conditions: Homo sapiens, HepG2, Table 2; no PBS wash; mean ± SD over the trials; read-out: Interexperimental EC50

Compound	EC50 [µM]
O=c1c(O)c(-c2ccc(O)c(O)c2)oc2cc(O)cc(O)c12 [Quercetin, quercetin]	5.89 ± 0.36

same assay, conditions: Homo sapiens, HepG2, Table 2; no PBS wash; one line per trial (trials 1-5), n=3; read-out: Intraexperimental EC50

Compound	EC50 [µM]
O=c1c(O)c(-c2ccc(O)c(O)c2)oc2cc(O)cc(O)c12 [Quercetin, quercetin]	6.07 ± 0.25

same assay, conditions: Homo sapiens, HepG2, Table 3; PBS wash; mean ± SD over the trials; read-out: Interexperimental EC50

Compound	EC50 [µM]
O=c1c(O)c(-c2ccc(O)c(O)c2)oc2cc(O)cc(O)c12 [Quercetin, quercetin]	5.12 ± 0.58

same assay, conditions: Homo sapiens, HepG2, Table 3; PBS wash; one line per trial (trials 1-5), n=3; read-out: Intraexperimental EC50

Compound	EC50 [µM]
O=c1c(O)c(-c2ccc(O)c(O)c2)oc2cc(O)cc(O)c12 [Quercetin, quercetin]	4.48 ± 0.18

same assay, conditions: PBS wash protocol

Compound	cellular antioxidant activity, result in words
O=C1c2c(O)cc(O)cc2O[C@H](c2ccc(O)c(O)c2)[C@H]1O [Taxifolin, taxifolin]	low activity at the concentrations tested

same assay, conditions: no PBS wash protocol

Compound	cellular antioxidant activity, result in words
O=C1c2c(O)cc(O)cc2O[C@H](c2ccc(O)c(O)c2)[C@H]1O [Taxifolin, taxifolin]	activity only at doses much higher than their cytotoxic concentrations; also recorded: low, but unquantifiable, activity; also recorded: low but unquantifiable activity

test system: not listed separately; experiment: Oxygen radical absorbance capacity (ORAC) assay; conditions: Example 3; flavonoids; mean ± SD, n ≧ 3
Procedure: The peroxyl radical scavenging efficacy of selected fruits was measured using the ORAC assay (Prior, R. L., et al (2003) J. Agric. Food Chem. 51:3273-3279). Briefly, 20 μL of blank, Trolox standard, or fruit extracts in 75 mM potassium phosphate buffer, pH 7.4 (working buffer), was added to triplicate wells in a black, clear-bottom, 96-well microplate. The triplicate samples were distributed throughout the microplate and were not placed side-by-side, to avoid any effects on readings due to location. In addition, no outside wells were used, as use of those wells results in greater variation. A volume of 200 μL of 0.96 μM fluorescein in working buffer was added to each well and incubated at 37° C. for 20 min, with intermittent shaking, before the addition of 20 μL of freshly prepared 119 mM ABAP in working buffer using a 12-channel pipetter. The microplate was immediately inserted into a Fluoroskan Ascent FL plate reader (ThermoLabsystems) at 37° C. The decay of fluorescence at 538 nm was measured with excitation at 485 nm every 4.5 min for 2.5 h. The areas under the fluorescence versus time curve for the samples minus the area under the curve for the blank were calculated and compared to a standard curve of the areas under the curve for 6.25, 12.5, 25, and 50 μM Trolox standards minus the area under the curve for blank. ORAC values were expressed as mean micromoles of Trolox equivalents (TE) per 100 g of fruit±SD for triplicate data from one experiment.
ORAC measurements were performed as described herein in Example 2.

Compound	ORAC
O=c1c(O)c(-c2ccc(O)cc2)oc2cc(O)cc(O)c12 [Kaempferol, kaempferol]	7.19 ± 1.29 def μmol of TE/μmol
O=c1c(O[C@@H]2O[C@H](CO)[C@@H](O)[C@H](O)[C@H]2O)c(-c2ccc(O)c(O)c2)oc2cc(O)cc(O)c12 [Q-3-G, quercetin-3-β-D-glucoside]	8.11 ± 1.86 cde μmol of TE/μmol
O=c1c(O)c(-c2ccc(O)c(O)c2)oc2cc(O)cc(O)c12 [Quercetin, quercetin]	8.04 ± 2.37 cde μmol of TE/μmol
O=C1c2c(O)cc(O)cc2O[C@H](c2ccc(O)c(O)c2)[C@H]1O [Taxifolin, taxifolin]	9.74 ± 1.20 bcd μmol of TE/μmol
O=c1c(-c2ccc(O)cc2)coc2cc(O)cc(O)c12 [genistein]	13.4±2.8 μmol of TE/μmol and 13.4 ± 2.8 a μmol of TE/μmol
